# Tested on: Primary splenocytes of C57BL/6J mice
# Assay: Polarization of mouse primary splenocytes, FACS
# Format: cell-based
# Experimental: Primary splenocytes of C57BL/6J mice (n=3-5) were treated of AVR 48 for 72 hrs. PMA (200 ng/mL) was used as a positive control. The cells were washed and stained for CD11b and MHC-II and were analyzed by FACS. Dead cells were excluded by Live/dead staining during analysis. It was observed that the expression levels of MHC-II and CD11b increased upon AVR48 stimulation in a dose dependent manner in splenocytes. Monocytes were further analyzed for Ly6c. As described by (Swirski et al, J Clin Invest, 2007, 117(1):195-205. doi: 10.1172/JCI29950), spleen cells with LY6c Hi are considered as inflammatory whereas Ly6c low as resident and anti-inflammatory (FIG. 24A). Next, live singlet cells that were CD11b hi and CD11c low, were gated for F4/80 and MHC-II expression. Cells having increased expression of F4/80 and MHC-II were considered as macrophages whereas cells having low expression of F4/80 were considered as monocytes.
smiles,measurement,setting,value
CC(=O)N[C@@H]1C(Oc2ccc([N+](=O)[O-])cc2)OC(CO)C(O)C1O (stereo partly drawn) [AVR-48],resident/anti-inflammatory macrophages (Ly6c hi/low),48-72 h,produces more resident/anti-inflammatory macrophages
same,expression level of CD11b,"72 hrs, dose dependent manner",increased
same,expression level of MHC-II,"72 hrs, dose dependent manner",increased
